Reference: patent US9718790B2, “Triazine derivative and pharmaceutical composition having an analgesic activity comprising the same” (SHIONOGI & CO., LTD., priority 2010, dated 2017)

Each compound was assayed against human P2X3 receptor (Homo sapiens (Human), UniProt P56373) (assay: Evaluation of human P2X3 receptor inhibitory activity (Fluo-3 calcium fluorescence, FDSS 3000, ATP stimulation)). Details: C6BU-1 cells stably expressing human P2X3 receptor.
Format: cell-based
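Further: stimulus was 50 nM ATP with fluorescence followed for 3 min, and the response per well was peak post-ATP fluorescence divided by the reading at measurement start.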

Sequence of human P2X3 receptor (P56373 whole entry): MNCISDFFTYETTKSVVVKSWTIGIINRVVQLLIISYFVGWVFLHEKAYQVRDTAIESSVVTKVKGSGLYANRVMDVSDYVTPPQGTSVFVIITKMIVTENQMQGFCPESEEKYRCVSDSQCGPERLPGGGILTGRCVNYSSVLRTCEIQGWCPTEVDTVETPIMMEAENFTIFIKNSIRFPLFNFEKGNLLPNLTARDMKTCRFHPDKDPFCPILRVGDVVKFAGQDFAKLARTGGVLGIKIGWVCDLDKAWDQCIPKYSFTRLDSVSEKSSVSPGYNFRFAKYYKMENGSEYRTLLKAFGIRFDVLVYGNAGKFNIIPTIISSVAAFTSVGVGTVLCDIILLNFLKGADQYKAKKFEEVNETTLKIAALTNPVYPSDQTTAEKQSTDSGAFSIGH

Row | Compound | IC50
1 | CC(C)Oc1ccc(/N=c2\[nH]c(=O)n(Cc3cc[nH]c(=O)c3)c(=O)n2Cc2ccc(Cl)cc2)cc1F [Compound I-0650] | 20 nM
2 | CC(C)Oc1ccc(/N=c2\[nH]c(=O)n(C(C)(C)C(=O)O)c(=O)n2Cc2ccc(Cl)cc2)cc1Cl [Compound I-0651] | 97 nM
3 | CC(C)Oc1ccc(/N=c2\[nH]c(=O)n(CCN/C(=N\C#N)Oc3ccccc3)c(=O)n2Cc2ccc(Cl)cc2)cc1F [Compound I-0652, 1-(4-chlorobenzyl)-6-(3-fluoro-4-isopropoxyphenylimino)-3-(4-cyanoimino-4-phenoxy-3-azabutyl)-1,3,5-triazinane-2,4-dion] | 102 nM
4 | CNC(=NC#N)NCCn1c(=O)[nH]/c(=N\c2ccc(OC(C)C)c(F)c2)n(Cc2ccc(Cl)cc2)c1=O [Compound I-0653, 1-(4-chlorobenzyl)-6-(3-fluoro-4-isopropoxyphenylimino)-3-(4-cyanoimino-4-methylamino-3-azabutyl)-1,3,5-triazinane-2,4-dion] | 37 nM
5 | CC(C)Oc1ccc(/N=c2\[nH]c(=O)n(CCS(=O)(=O)O)c(=O)n2Cc2ccc(Cl)cc2)cc1F [Compound I-0654] | 26 nM
6 | COC(=O)[C@@H](C)Cn1c(=O)[nH]/c(=N\c2ccc(OC(F)F)c(F)c2)n(Cc2ccc(Cl)cc2)c1=O [Compound I-0655] | 67 nM
7 | COC(=O)[C@@H](C)Cn1c(=O)[nH]/c(=N\c2ccc(COC(C)C)cc2)n(Cc2ccc(Cl)cc2)c1=O [Compound I-0656] | 100 nM
8 | COC(=O)[C@@H](C)Cn1c(=O)[nH]/c(=N\c2ccc(CCO)cc2)n(Cc2ccc(Cl)cc2)c1=O [Compound I-0657] | 471 nM
9 | C[C@@H](Cn1c(=O)[nH]/c(=N\c2ccc(OC(F)F)c(F)c2)n(Cc2ccc(Cl)cc2)c1=O)C(=O)O [Compound I-0658] | 109 nM
10 | CC(C)Oc1ccc(/N=c2\[nH]c(=O)n(CCNC(=N)N)c(=O)n2Cc2ccc(Cl)cc2)cc1F [Compound I-0659, 1-(4-chlorobenzyl)-6-(3-fluoro-4-isopropoxyphenylimino)-3-(4-imino-4-amino-3-azabutyl)-1,3,5-triazinane-2,4-dion] | 134 nM
11 | COC(=O)Cn1c(=O)[nH]/c(=N\c2ccc(OC(C)C)c(Cl)c2)n(Cc2ccc(Cl)cc2)c1=O [Compound I-0660] | 11 nM
12 | CC(C)Oc1ccc(/N=c2\[nH]c(=O)n(C[C@H]3CC(=O)N([C@@H](C)c4ccccc4)C3)c(=O)n2Cc2ccc(Cl)cc2)cc1F [Compound I-0661] | 7 nM
13 | CC(C)Oc1ccc(/N=c2\[nH]c(=O)n(C[C@@H]3CC(=O)N([C@H](C)c4ccccc4)C3)c(=O)n2Cc2ccc(Cl)cc2)cc1F [Compound I-0662] | 22 nM
14 | CC(C)Oc1ccc(/N=c2\[nH]c(=O)n(CC(=O)NC3CCOCC3)c(=O)n2Cc2ccc(Cl)cc2)cc1Cl [Compound I-0663] | 5 nM
15 | CC(C)Oc1ccc(/N=c2\[nH]c(=O)n(CC(=O)NCC3CCOCC3)c(=O)n2Cc2ccc(Cl)cc2)cc1Cl [Compound I-0664] | 6 nM
16 | CC(C)Oc1ccc(/N=c2\[nH]c(=O)n(CC(=O)NC(CO)CO)c(=O)n2Cc2ccc(Cl)cc2)cc1Cl [Compound I-0665] | 4 nM
17 | CC(C)Oc1ccc(/N=c2\[nH]c(=O)n(CC(=O)NCCC3CCOCC3)c(=O)n2Cc2ccc(Cl)cc2)cc1Cl [Compound I-0666] | 8 nM
18 | CC(C)Oc1ccc(/N=c2\[nH]c(=O)n(CC(=O)OCC3CCOCC3)c(=O)n2Cc2ccc(Cl)cc2)cc1Cl [Compound I-0667] | 20 nM
19 | CC(C)OCc1ccc(/N=c2\[nH]c(=O)n(C[C@H](C)C(=O)O)c(=O)n2Cc2ccc(Cl)cc2)cc1 [Compound I-0669] | 193 nM
20 | COC(=O)[C@@H](C)Cn1c(=O)[nH]/c(=N\c2ccc(OC(C)C)c(C)c2)n(Cc2ccc(C)cc2)c1=O [Compound I-0670] | 8 nM

Row | Compound | IC50
21 | COC(=O)[C@@H](C)Cn1c(=O)[nH]/c(=N\c2ccc3oc(C)cc3c2)n(Cc2ccc(C)cc2)c1=O [Compound I-0671] | 15 nM
22 | CC(C)Oc1ccc(/N=c2\[nH]c(=O)n(CCc3ncn[nH]3)c(=O)n2Cc2ccc(Cl)cc2)cc1F [Compound I-0672, 1-(4-chlorobenzyl)-6-(3-fluoro-4-isopropoxyphenylimino)-3-[2-(1,2,4-triazol-5-yl)ethyl]-1,3,5-triazinane-2,4-dion] | 8 nM
23 | CC(C)Oc1ccc(/N=c2\[nH]c(=O)n(CC(=O)OC3CCOCC3)c(=O)n2Cc2ccc(Cl)cc2)cc1Cl [Compound I-0673] | 8 nM
24 | CC(C)Oc1ccc(/N=c2\[nH]c(=O)n(C3C[C@H]3C(=O)O)c(=O)n2Cc2ccc(Cl)cc2)cc1F (stereo partly shown) [Compound I-0674] | 126 nM
25 | CC(C)Oc1ccc(/N=c2\[nH]c(=O)n([C@H]3C[C@@H]3C(=O)O)c(=O)n2Cc2ccc(Cl)cc2)cc1F [Compound I-0675] | 37 nM
26 | COC(=O)C(C)(C)n1c(=O)[nH]/c(=N\c2ccc(O)c(Cl)c2)n(Cc2ccc(Cl)cc2)c1=O [Compound I-0676] | 30 nM
27 | CCOc1ccc(/N=c2\[nH]c(=O)n(C[C@H](C)C(=O)OC)c(=O)n2Cc2ccc(C)cc2)cc1Cl [Compound I-0678] | 8 nM
28 | CC(C)Oc1ccc(/N=c2\[nH]c(=O)n(Cc3ncn[nH]3)c(=O)n2Cc2ccc(Cl)cc2)cc1F [Compound I-0679] | 32 nM
29 | Cc1ccc(Cn2c(=O)n(C[C@H](C)C(=O)O)c(=O)[nH]/c2=N\c2ccc(OC(C)C)c(C)c2)cc1 [Compound I-0680] | 26 nM
30 | Cc1ccc(Cn2c(=O)n(C[C@H](C)C(=O)O)c(=O)[nH]/c2=N\c2ccc3oc(C)cc3c2)cc1 [Compound I-0681] | 49 nM
31 | CCOc1ccc(/N=c2\[nH]c(=O)n(C[C@H](C)C(=O)O)c(=O)n2Cc2ccc(C)cc2)cc1Cl [Compound I-0682] | 23 nM
32 | COc1ncccc1Cn1c(=O)[nH]/c(=N\c2ccc(OC(C)C)c(F)c2)n(Cc2ccc(Cl)cc2)c1=O [Compound I-0683] | 9 nM
33 | COc1ccc(CN2C(=O)CC[C@H]2Cn2c(=O)[nH]/c(=N\c3ccc(OC(C)C)c(F)c3)n(Cc3ccc(Cl)cc3)c2=O)cc1 [Compound I-0684] | 30 nM
34 | CC(C)Oc1ccc(/N=c2\[nH]c(=O)n(Cc3ccc[nH]c3=O)c(=O)n2Cc2ccc(Cl)cc2)cc1F [Compound I-0685] | 8 nM
35 | COCc1ccc(/N=c2\[nH]c(=O)n(C[C@H](C)C(=O)O)c(=O)n2Cc2ccc(Cl)cc2)cc1 [Compound I-0686] | 605 nM
36 | CC(C)Oc1ccc(/N=c2\[nH]c(=O)n(C(C)(C)C(=O)NC(CO)CO)c(=O)n2Cc2ccc(Cl)cc2)cc1Cl [Compound I-0687] | 12 nM
37 | COc1ccc(CN2C(=O)CC[C@@H]2Cn2c(=O)[nH]/c(=N\c3ccc(OC(C)C)c(F)c3)n(Cc3ccc(Cl)cc3)c2=O)cc1 [Compound I-0688] | 5 nM
38 | CC(C)Oc1ccc(/N=c2\[nH]c(=O)n(Cc3cccn(C)c3=O)c(=O)n2Cc2ccc(Cl)cc2)cc1F [Compound I-0689] | 5 nM
39 | COC(=O)[C@@H](C)Cn1c(=O)[nH]/c(=N\c2ccc(C)c(Cl)c2)n(Cc2ccc(Cl)cc2)c1=O [Compound I-0691] | 48 nM
40 | COC(=O)[C@@H](C)Cn1c(=O)[nH]/c(=N\c2ccc3[nH]c(C)cc3c2)n(Cc2ccc(Cl)cc2)c1=O [Compound I-0692] | 29 nM

Row | Compound | IC50
41 | CC(C)Oc1ccc(/N=c2\[nH]c(=O)n(CCS(N)(=O)=O)c(=O)n2Cc2ccc(Cl)cc2)cc1F [Compound I-0693, 1-(4-chlorobenzyl)-6-(3-fluoro-4-isopropoxyphenylimino)-3-(2-sulfamoylethyl)-1,3,5-triazinane-2,4-dion] | 13 nM
42 | CCOC(=O)C1(Cn2c(=O)[nH]/c(=N\c3ccc(OC(C)C)c(C)c3)n(Cc3ccc(Cl)cc3)c2=O)CC1 [Compound I-0694] | 13 nM
43 | Cc1ccc(/N=c2\[nH]c(=O)n(C[C@H](C)C(=O)O)c(=O)n2Cc2ccc(Cl)cc2)cc1Cl [Compound I-0696] | 129 nM
44 | Cc1cc2cc(/N=c3\[nH]c(=O)n(C[C@H](C)C(=O)O)c(=O)n3Cc3ccc(Cl)cc3)ccc2[nH]1 [Compound I-0697] | 57 nM
45 | Cc1cc(/N=c2\[nH]c(=O)n(CC3(C(=O)O)CC3)c(=O)n2Cc2ccc(Cl)cc2)ccc1OC(C)C [Compound I-0698] | 26 nM
46 | COC(=O)[C@@H]1CC(n2c(=O)[nH]/c(=N\c3ccc(OC(C)C)c(C)c3)n(Cc3ccc(Cl)cc3)c2=O)CN1C(=O)OC(C)(C)C (stereo partly shown) [Compound I-0699] | 37 nM
47 | COC(=O)c1ccc(Cn2c(=O)[nH]/c(=N\c3ccc(OC(C)C)c(C)c3)n(Cc3ccc(Cl)cc3)c2=O)o1 [Compound I-0700] | 6 nM
48 | CCC(Cn1c(=O)[nH]/c(=N\c2ccc(OC(C)C)c(C)c2)n(Cc2ccc(Cl)cc2)c1=O)C(=O)OC(C)(C)C (stereo not shown) [Compound I-0701] | 35 nM
49 | COC(=O)[C@@H](C)Cn1c(=O)[nH]/c(=N\c2ccc(OC)c(Cl)c2)n(Cc2ccc(Cl)cc2)c1=O [Compound I-0702] | 107 nM
50 | CNC(=O)C1(Cn2c(=O)[nH]/c(=N\c3ccc(OC(C)C)c(C)c3)n(Cc3ccc(Cl)cc3)c2=O)CC1 [Compound I-0703] | 15 nM
51 | Cc1cc(/N=c2\[nH]c(=O)n(CC3(C(=O)NCCO)CC3)c(=O)n2Cc2ccc(Cl)cc2)ccc1OC(C)C [Compound I-0704] | 23 nM
52 | CC(C)Oc1ccc(/N=c2\[nH]c(=O)n(C(C)(C)C(=O)NCCO)c(=O)n2Cc2ccc(Cl)cc2)cc1Cl [Compound I-0705] | 11 nM
53 | CCCOc1ccc(/N=c2\[nH]c(=O)n(C[C@H](C)C(=O)OC)c(=O)n2Cc2ccc(Cl)cc2)cc1C [Compound I-0707] | 21 nM
54 | Cc1cc(/N=c2\[nH]c(=O)n([C@H]3C[C@@H](C(=O)O)N(C(=O)OC(C)(C)C)C3)c(=O)n2Cc2ccc(Cl)cc2)ccc1OC(C)C [Compound I-0708] | 966 nM
55 | Cc1cc(/N=c2\[nH]c(=O)n(C[C@H]3COC(C)(C)O3)c(=O)n2Cc2ccc(Cl)cc2)ccc1OC(C)C [Compound I-0709] | 7 nM
56 | Cc1cc(/N=c2\[nH]c(=O)n(Cc3ccc(C(=O)O)o3)c(=O)n2Cc2ccc(Cl)cc2)ccc1OC(C)C [Compound I-0710] | 19 nM
57 | CCCOc1ccc(/N=c2\[nH]c(=O)n(C[C@H](C)C(=O)O)c(=O)n2Cc2ccc(Cl)cc2)cc1C [Compound I-0711] | 40 nM
58 | Cc1cc(/N=c2\[nH]c(=O)n(Cc3cccn(CCOC4CCCCO4)c3=O)c(=O)n2Cc2ccc(Cl)cc2)ccc1OC(C)C (stereo not shown) [Compound I-0712] | 25 nM
